Numbers after ± are expanded uncertainties.
Legend:
[1] = molar heat capacity at constant pressure; settings: 101.33 kPa, Liquid, Small sample (50 mg) DSC
[2] = Crystal; DTA
[3] = Molar enthalpy of transition or fusion; settings: Crystal; DSC

OC[C@H]1O[C@@](CO)(O[C@H]2O[C@H](CO)[C@@H](O)[C@H](O)[C@H]2O)[C@@H](O)[C@@H]1O [D-sucrose]
molar heat capacity at constant pressure ([1]; 331 K): 746.98 ± 15 J/K/mol | molar heat capacity at constant pressure ([1]; 340 K): 756.97 ± 15 J/K/mol | molar heat capacity at constant pressure ([1]; 350 K): 768.07 ± 15 J/K/mol | molar heat capacity at constant pressure ([1]; 360 K): 779.17 ± 16 J/K/mol | molar heat capacity at constant pressure ([1]; 370 K): 790.27 ± 16 J/K/mol | molar heat capacity at constant pressure ([1]; 380 K): 801.37 ± 16 J/K/mol | molar heat capacity at constant pressure ([1]; 390 K): 812.47 ± 16 J/K/mol | molar heat capacity at constant pressure ([1]; 400 K): 823.57 ± 16 J/K/mol | molar heat capacity at constant pressure ([1]; 410 K): 834.67 ± 17 J/K/mol | molar heat capacity at constant pressure ([1]; 420 K): 845.77 ± 17 J/K/mol | molar heat capacity at constant pressure ([1]; 424 K): 850.21 ± 17 J/K/mol | molar heat capacity at constant pressure ([1]; 430 K): 856.87 ± 17 J/K/mol | molar heat capacity at constant pressure ([1]; 440 K): 867.97 ± 17 J/K/mol | molar heat capacity at constant pressure ([1]; 450 K): 879.07 ± 18 J/K/mol | molar heat capacity at constant pressure ([1]; 460 K): 890.17 ± 18 J/K/mol | molar heat capacity at constant pressure ([1]; 470 K): 901.27 ± 18 J/K/mol | molar heat capacity at constant pressure ([1]; 480 K): 912.37 ± 18 J/K/mol | molar heat capacity at constant pressure ([1]; 490 K): 923.47 ± 18 J/K/mol | molar heat capacity at constant pressure ([1]; 500 K): 934.57 ± 19 J/K/mol | molar heat capacity at constant pressure ([1]; 510 K): 945.67 ± 19 J/K/mol | molar heat capacity at constant pressure ([1]; 520 K): 956.77 ± 19 J/K/mol | molar heat capacity at constant pressure ([1]; 530 K): 967.87 ± 19 J/K/mol | molar heat capacity at constant pressure ([1]; 540 K): 978.97 ± 20 J/K/mol | molar heat capacity at constant pressure ([1]; 550 K): 990.07 ± 20 J/K/mol | molar heat capacity at constant pressure ([1]; 560 K): 1001.2 ± 20 J/K/mol | molar heat capacity at constant pressure ([1]; 570 K): 1012.3 ± 20 J/K/mol | molar heat capacity at constant pressure ([1]; 580 K): 1023.4 ± 20 J/K/mol | molar heat capacity at constant pressure ([1]; 590 K): 1034.5 ± 21 J/K/mol | molar heat capacity at constant pressure ([1]; 600 K): 1045.6 ± 21 J/K/mol | Normal melting temperature [2]: 151.2 ± 0.5 °C | Molar enthalpy of transition or fusion [3]: 7.65 ± 0.239 kcal/mol
